Source: patent US11957783B2, “Topical immunosensitizers to treat viral and fungal infections” (Squarex, LLC, priority 2018, dated 2024)

Columns and labels:
[1] = tested on: Interleukin 2 Receptor (CD25); assay: Plasma level of Interleukin 2 Receptor (CD25); type: in vivo, human; conditions: for Interleukin 2 Receptor (CD25) in plasma, number of subjects with undetectable levels / Interleukin 2 Receptor (CD25) in plasma, group average: n = 12; for Interleukin 2 Receptor (CD25) in plasma, number of subjects with undetectable levels: lower limit of detection 9.19 pg/ml; for Interleukin 2 Receptor (CD25) in plasma, group average: undetectable counted as 9.19 pg/ml
Experimental: (§1) After a screening visit at which blood was drawn to test for IgG antibody against HSV-1 and subjects were interviewed for inclusion/exclusion criteria, selected subjects returned for blood draws on day 1. After the blood draw on day 1, subjects in group A only were dosed with SADBE. A petrolatum donut was applied with a cotton swab to form about a 1 cm diameter donut on skin on the inner aspect of the upper arm. Then a separate cotton swab was dipped in a 2% SADBE solution (w/v) in DMSO, and the swab was then used to apply about 10-20 mg of solution over about a 1 cm diameter circle within the petrolatum donut. Immediately after application, the application site was covered with TEGADERM. Subjects were advised to remove the TEGADERM and rinse and wipe the spot three hours later. The group A subjects then returned for blood draws on days 15 and 57 and were queried about adverse events on those dates.
(§2) At this study visit where blood was drawn it was tested for blood cell counts, various cytokine levels, and anti-HSV-1 IgG quantitative levels.
All subjects had detectable IL-2 and the large majority had detectable IL-2 receptor.
For IL2R the detection limit was 9.19 pg/ml and the number of subjects who measured undetectable are listed. If a subject's IL2R was undetectable, the value of 9.19 pg/ml was used for that subject in detecting the average of the group. No subjects had undetectable IL2.

[2] = tested on: peripheral blood mononuclear cells (PBMC); assay: PBMC proliferation in vitro (tritiated thymidine incorporation), Example 1; type: cell-based, human; conditions: for PBMC Percent proliferation, normalized all three stimuli: normalized to average of group A day 57, n = 36; for PBMC Percent proliferation: n = 12; for Percent proliferation: 2 subjects with largest and smallest day 57-day 1 difference removed, n = 10
Experimental: as §1
PBMC were isolated using SepMate PBMC isolation tubes (Stem Cell Technologies, Vancouver, Canada) and Ficoll-Paque according to the manufacturer's instructions. PBMC were isolated and suspended in negative control medium at 2 million cells/ml. PBMC suspension (100 μL) was added to 100 μL of medium in quadruplicate in 96-well plates. The plates were prepared in advance and stored at −70° C. The wells were in five different conditions in quadruplicate with these final concentrations after addition of the 100 μL of PBMC suspension in negative control medium. • 1. Negative control in medium (RPMI with glutamine and pen/strep, supplemented with 10% human A/B serum). • 2. Medium plus 16 μg/ml protein from heat-inactivated HSV-1-infected Vero cell extracts. • 3. Medium plus heat-inactivated HSV-1 cell-free virus at a final 7.5 million pfu/ml. • 4. Medium plus Candida cell extract. (Greer item number M15A50, 20,000 pnu/ml allergenic extract mixed molds Candida albicans, was diluted 1/50 into medium). • 5. Positive control, medium plus 10 μg/ml concanavalin A.
A second plate was incubated for 4 days. On the 4th day 1 μCi of tritiated thymidine in 50 μl of fresh negative control medium was added to each well. After 22 hours incubation the cells were harvested onto a filter mat and each well counted by scintillation counting for tritium incorporation into DNA as a quantitative measure of cell division.
The relative proliferation for each test condition was calculated as (avg. CPM test condition−avg. CPM negative control)/(avg. CPM positive control−avg. CPM negative control). The average CPM is the average tritium counts per minute of the 4 wells in a given test condition for a given collection point of a given patient. To calculate the normalized proliferation to all three stimuli, each data point was converted to a percentage proliferation relative to the average proliferation to that stimulus in group C or group A day 57, whichever was being compared to.
Immediately after the blood collection on day 1, the group A subjects (frequent cold sore sufferers) were treated with one dose of topical 2% SADBE in DMSO applied to the inner aspect of the subject's arm. They returned for blood collection on day 15 and day 57, two and 8 weeks after the single dose of drug. The relative proliferation of PBMC from the group A subjects collected on days 1, 15, and 57, in response to the stimuli, is shown in Table 4.

anti-HSV-1 IgG = assay: Serum anti-HSV-1 IgG quantitative levels; type: in vivo, human; conditions: for Level of anti-HSV1 IgG, group average: n = 12
Experimental: as §1, §2
Anti-HSV-1 IgG was quantified in serum collected at each study visit.

[3] = tested on: blood cells (B-Cells, T-Cells, helper/cytotoxic); assay: Blood cell counts of subjects; type: in vivo, human; conditions: for Absolute Count CD19 (B-Cells), group average / Helper/Cytotoxic Ratio, group average / Percentage CD3 (T-Cells), group average / Percentage CD19 (B-Cells), group average / T-cell to B-cell ratio, group average: n = 12
Experimental: as §1, §2
Certain blood cell count parameters were measured in the study. Differences vs. group A day 1 that are statistically significant are highlighted in bold underline.

herpes labialis outbreak = conditions: 2.0% SADBE in DMSO once to arm; placebo 40 days; P=0.009; previous trial (Palli 2017); cited from earlier work
[4] = Adverse events after single topical SADBE dose, Phase 1 study (Example 1); type: in vivo, human
Experimental: as §1
Of the 12 subjects treated, two experienced stinging at the application site, and one had nausea that was ruled possibly related to the study drug.

CCCCOc1c(OCCCC)c(=O)c1=O [SADBE, 3,4-Dibutoxy-3-cyclobutene-1,2-dione]
Interleukin 2 Receptor (CD25) in plasma, Sample/A1 ([1]; A15 / group A day 1): 1.23
Interleukin 2 Receptor (CD25) in plasma, Sample minus A1 ([1]; A15 minus group A day 1): 167.04 pg/mL
Interleukin 2 Receptor (CD25) in plasma, Sample/A1 ([1]; A57 / group A day 1): 0.96
Interleukin 2 Receptor (CD25) in plasma, Sample minus A1 ([1]; A57 minus group A day 1): -26.24 pg/mL
Interleukin 2 Receptor (CD25) in plasma, number of subjects with undetectable levels ([1]; group A day 15 (A15)): 1
Interleukin 2 Receptor (CD25) in plasma, group average ([1]; group A day 15 (A15)): 899.81 pg/mL
Interleukin 2 Receptor (CD25) in plasma, number of subjects with undetectable levels ([1]; group A day 57 (A57)): 0
Interleukin 2 Receptor (CD25) in plasma, group average ([1]; group A day 57 (A57)): 706.52 pg/mL
PBMC Percent proliferation, normalized all three stimuli ([2]; group A Day 15): 71.65%
Percent proliferation, normalized all three stimuli ([2]; group A Day 57, largest and smallest difference data points removed, n = 30): 99.97%
PBMC Percent proliferation, normalized all three stimuli ([2]; group A Day 57): 99.97%
PBMC Percent proliferation ([2]; stimulus Candida extract, group A Day 15 after one SADBE treatment): 3.33%
Percent proliferation ([2]; stimulus Candida extract, group A Day 57): 3.19%
PBMC Percent proliferation ([2]; stimulus Candida extract, group A Day 57 after one SADBE treatment): 7.35%
PBMC Percent proliferation ([2]; stimulus HSV-1-infected cell extracts, group A Day 15 after one SADBE treatment): 15.43%
Percent proliferation ([2]; stimulus HSV-1-infected cell extracts, group A Day 57): 15.78%
PBMC Percent proliferation ([2]; stimulus HSV-1-infected cell extracts, group A Day 57 after one SADBE treatment): 16.96%
PBMC Percent proliferation ([2]; stimulus HSV-1 virus, group A Day 15 after one SADBE treatment): 10.52%
Percent proliferation ([2]; stimulus HSV-1 virus, group A Day 57): 12.88%
PBMC Percent proliferation ([2]; stimulus HSV-1 virus, group A Day 57 after one SADBE treatment): 13.37%
Level of anti-HSV1 IgG, Sample/A1 (anti-HSV-1 IgG; A15 / group A day 1): 1.13
Level of anti-HSV1 IgG, Sample minus A1 (anti-HSV-1 IgG; A15 minus group A day 1): 1.08 IV
Level of anti-HSV1 IgG, Sample/A1 (anti-HSV-1 IgG; A57 / group A day 1): 0.91
Level of anti-HSV1 IgG, Sample minus A1 (anti-HSV-1 IgG; A57 minus group A day 1): −0.73 IV
change in anti-HSV1 IgG from day 15 to day 57 in group A (anti-HSV-1 IgG; serum, after one SADBE dose, P<0.01): highly significant decrease
Level of anti-HSV1 IgG, group average (anti-HSV-1 IgG; serum, group A day 15 (A15)): 9.39 IV
Level of anti-HSV1 IgG, group average (anti-HSV-1 IgG; serum, group A day 57 (A57)): 7.58 IV
Absolute Count CD19 (B-Cells), Sample/A1 ([3]; A15 / group A day 1): 0.88
Helper/Cytotoxic Ratio, Sample/A1 ([3]; A15 / group A day 1): 0.68
Percentage CD3 (T-Cells), Sample/A1 ([3]; A15 / group A day 1): 1.02
Percentage CD19 (B-Cells), Sample/A1 ([3]; A15 / group A day 1): 0.83
T-cell to B-cell ratio, Sample/A1 ([3]; A15 / group A day 1): 1.35
Absolute Count CD19 (B-Cells), Sample minus A1 ([3]; A15 minus group A day 1): −22.63 cells/mm^3
Helper/Cytotoxic Ratio, Sample minus A1 ([3]; A15 minus group A day 1): −1.67
Percentage CD3 (T-Cells), Sample minus A1 ([3]; A15 minus group A day 1): 1.42%
Percentage CD19 (B-Cells), Sample minus A1 ([3]; A15 minus group A day 1): −2.08%
T-cell to B-cell ratio, Sample minus A1 ([3]; A15 minus group A day 1): 2.41
Absolute Count CD19 (B-Cells), Sample/A1 ([3]; A57 / group A day 1): 0.99
Helper/Cytotoxic Ratio, Sample/A1 ([3]; A57 / group A day 1): 0.83
Percentage CD3 (T-Cells), Sample/A1 ([3]; A57 / group A day 1): 1.03
Percentage CD19 (B-Cells), Sample/A1 ([3]; A57 / group A day 1): 0.95
T-cell to B-cell ratio, Sample/A1 ([3]; A57 / group A day 1): 1.01
Absolute Count CD19 (B-Cells), Sample minus A1 ([3]; A57 minus group A day 1): −1.85 cells/mm^3
Helper/Cytotoxic Ratio, Sample minus A1 ([3]; A57 minus group A day 1): −0.90
Percentage CD3 (T-Cells), Sample minus A1 ([3]; A57 minus group A day 1): 2.58%
Percentage CD19 (B-Cells), Sample minus A1 ([3]; A57 minus group A day 1): −0.58%
T-cell to B-cell ratio, Sample minus A1 ([3]; A57 minus group A day 1): 0.69
Absolute Count CD19 (B-Cells), group average ([3]; group A day 15 (A15)): 171.74 cells/mm^3
Helper/Cytotoxic Ratio, group average ([3]; group A day 15 (A15)): 3.58
Percentage CD3 (T-Cells), group average ([3]; group A day 15 (A15)): 77.50%
Percentage CD19 (B-Cells), group average ([3]; group A day 15 (A15)): 10.17%
T-cell to B-cell ratio, group average ([3]; group A day 15 (A15)): 9.22
Absolute Count CD19 (B-Cells), group average ([3]; group A day 57 (A57)): 192.52 cells/mm^3
Helper/Cytotoxic Ratio, group average ([3]; group A day 57 (A57)): 4.35
Percentage CD3 (T-Cells), group average ([3]; group A day 57 (A57)): 78.67%
Percentage CD19 (B-Cells), group average ([3]; group A day 57 (A57)): 11.67%
T-cell to B-cell ratio, group average ([3]; group A day 57 (A57)): 7.50
median time to the next outbreak (herpes labialis outbreak): more than 122 days
rashes or delayed-type hypersensitivity reactions ([4]; 12 subjects treated): No rashes or delayed-type hypersensitivity reactions were reported
tolerability of study drug ([4]; 12 subjects, single topical 2% SADBE in DMSO on arm): well tolerated
subjects who experienced stinging at the application site ([4]; of the 12 subjects treated): two
subjects with nausea ruled possibly related to the study drug ([4]; of the 12 subjects treated): one
